In brackets after ≈: the same amount, converted by molar mass. Numbered stars: 1 amine (or outer) side, 2 acyl side, 3 side chain; on linkers, the order of the positions; unused ones are H or OH. Bridge positions count the residues as written; N and C are the ends. Square brackets hold non-standard residues; d marks the D form. Peptide text beside a SMILES is read from it. * marks the point of attachment. X3 = O=C([C@@H](Cc1ccc(CS(=O)(=O)O)cc1)N[*:1])[*:2]; Dab(CH2SO3H) = N[C@@H](CCNCS(=O)(=O)O)C(=O)O; X2 = O=C([C@H](CNCS(=O)(=O)O)N[*:1])[*:2]; Heptanoyl(6-Me) = CC(C)CCCCC(=O)*; Sulfomethyl = O=S(=O)(O)C*; Dab = NCC[C@H](N)C(=O)O; Dap = NC[C@H](N)C(=O)O
Key:
Format in all cases: cell-based
[1] = tested on: Acinetobacter baumannii ABA19-1; conditions: ABA19-1
Method in brief: (§1)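 In this CLSI-based assay, serially halved compound (final 64–0.03 mg/L) was exposed to (2-4) × 10^5 CFU/mL bacteria in MH broth at 35-37°C for 16-20 h. The readout was the MIC.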

[2] = tested on: Acinetobacter baumannii NCTC 13304 (OXA-27); conditions: NCTC 13304
Method in brief: as §1

[3] = tested on: Escherichia coli ATCC BAA-2340 (KPC); conditions: ATCC BAA-2340
Method in brief: as §1

[4] = tested on: Escherichia coli ATCC BAA-2523; conditions: ATCC BAA-2523
Method in brief: as §1

[5] = tested on: Klebsiella pneumoniae ATCC BAA-1705 (KPC); conditions: ATCC BAA-1705
Method in brief: as §1

[6] = tested on: Klebsiella pneumoniae KPN+19-15; conditions: KPN+19-15
Method in brief: as §1

[7] = tested on: Pseudomonas aeruginosa ATCC 27853; conditions: ATCC 27853
Method in brief: as §1

[8] = tested on: Pseudomonas aeruginosa PAE19-3; conditions: PAE19-3
Method in brief: as §1

[9] = Nephrotoxicity assay: in vitro cytotoxicity of HK-2 cells by CCK-8 assay; conditions: human, HK-2 cells (human renal), 72 h incubation with drug-containing medium
Method in brief: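 Compounds in sterile water, diluted to final 500, 250, 200, 100, 50, 25 and 12.5 µg/mL, were applied for 72 h to human HK-2 kidney cells. Absorbance at 450 nm after 3 h CCK-8 gave viability against untreated wells, and IC50 came from logarithmic regression; three replicates.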

SMILES | MIC [1] | MIC [2] | MIC [3] | MIC [4] | MIC [5] | MIC [6] | MIC [7] | MIC [8] | IC50 at 72 h [9]
CC(C)CCCCC(=O)N[C@@H](CCN)C(=O)N[C@H](C(=O)N[C@H](CO)C(=O)N[C@H]1CCNC(=O)[C@H]([C@@H](C)O)NC(=O)[C@H](CCNCS(=O)(=O)O)NC(=O)[C@H](CCN)NC(=O)[C@H]([C@@H](C)O)NC(=O)[C@@H](Cc2ccccc2)NC(=O)[C@H](CCN)NC1=O)[C@@H](C)O [Compound 111, 6-methylheptanoyl-Dab-Thr-D-Ser-ring(4-10)[Dab-Dab-D-Phe-Thr-Dab-Dab(CH2SO3H)-Thr]] ({Heptanoyl(6-Me)}-[Dab]T[dS][Dab][Dab][dF]T[Dab][Dab(CH2SO3H)]T; lactam 4-C) | 0.25 mg/L (≈ 0.199 µM) | 0.06 mg/L (≈ 0.0477 µM) | 0.06 mg/L (≈ 0.0477 µM) | 0.06 mg/L (≈ 0.0477 µM) | 0.125 mg/L (≈ 0.0993 µM) | 0.125 mg/L (≈ 0.0993 µM) | 0.25 mg/L (≈ 0.199 µM) | 0.5 mg/L (≈ 0.397 µM) | > 500 mg/L
CC(C)CCCCC(=O)N[C@@H](CCN)C(=O)N[C@H](C(=O)N[C@@H](CNCS(=O)(=O)O)C(=O)N[C@H]1CCNC(=O)[C@H]([C@@H](C)O)NC(=O)[C@H](CCN)NC(=O)[C@H](CCN)NC(=O)[C@H]([C@@H](C)O)NC(=O)[C@@H](Cc2ccccc2)NC(=O)[C@H](CCN)NC1=O)[C@@H](C)O [Compound 112, 6-methylheptanoyl-Dab-Thr-Dap(CH2SO3H)-ring(4-10)[Dab-Dab-D-Phe-Thr-Dab-Dab-Thr]] ({Heptanoyl(6-Me)}-[Dab]T[X2][Dab][Dab][dF]T[Dab][Dab]T; lactam 4-C) | 0.06 mg/L (≈ 0.0477 µM) | 0.06 mg/L (≈ 0.0477 µM) | 0.03 mg/L (≈ 0.0239 µM) | 0.03 mg/L (≈ 0.0239 µM) | 0.125 mg/L (≈ 0.0994 µM) | 0.125 mg/L (≈ 0.0994 µM) | 0.25 mg/L (≈ 0.199 µM) | 0.25 mg/L (≈ 0.199 µM) | > 500 mg/L
CC(C)CCCCC(=O)N[C@@H](CCN)C(=O)N[C@H](C(=O)N[C@@H](CN)C(=O)N[C@H]1CCNC(=O)[C@H]([C@@H](C)O)NC(=O)[C@H](CCN)NC(=O)[C@H](CCN)NC(=O)[C@H]([C@@H](C)O)NC(=O)[C@@H](Cc2ccccc2)NC(=O)[C@H](CCN)NC1=O)[C@@H](C)OCS(=O)(=O)O [Compound 113, 6-methylheptanoyl-Dab-Thr(CH2SO3H)-Dap-ring(4-10)[Dab-Dab-D-Phe-Thr-Dab-Dab-Thr]] ({Heptanoyl(6-Me)}-[Dab]T(Sulfomethyl)[Dap][Dab][Dab][dF]T[Dab][Dab]T; lactam 4-C) | 0.06 mg/L (≈ 0.0477 µM) | 0.06 mg/L (≈ 0.0477 µM) | 0.03 mg/L (≈ 0.0239 µM) | 0.03 mg/L (≈ 0.0239 µM) | 0.125 mg/L (≈ 0.0994 µM) | 0.125 mg/L (≈ 0.0994 µM) | 0.25 mg/L (≈ 0.199 µM) | 0.25 mg/L (≈ 0.199 µM) | > 500 mg/L
CC(C)CCCCC(=O)N[C@@H](CCN)C(=O)N[C@H](C(=O)N[C@@H](CN)C(=O)N[C@H]1CCNC(=O)[C@H]([C@@H](C)O)NC(=O)[C@H](CCN)NC(=O)[C@H](CCN)NC(=O)[C@H]([C@@H](C)OCS(=O)(=O)O)NC(=O)[C@@H](Cc2ccccc2)NC(=O)[C@H](CCN)NC1=O)[C@@H](C)O [Compound 114, 6-methylheptanoyl-Dab-Thr-Dap-ring(4-10)[Dab-Dab-D-Phe-Thr(CH2SO3H)-Dab-Dab-Thr]] ({Heptanoyl(6-Me)}-[Dab]T[Dap][Dab][Dab][dF]T(Sulfomethyl)[Dab][Dab]T; lactam 4-C) | 0.06 mg/L (≈ 0.0477 µM) | 0.06 mg/L (≈ 0.0477 µM) | 0.03 mg/L (≈ 0.0239 µM) | 0.03 mg/L (≈ 0.0239 µM) | 0.125 mg/L (≈ 0.0994 µM) | 0.125 mg/L (≈ 0.0994 µM) | 0.25 mg/L (≈ 0.199 µM) | 0.25 mg/L (≈ 0.199 µM) | > 500 mg/L
CC(C)CCCCC(=O)N[C@@H](CCN)C(=O)N[C@H](C(=O)N[C@@H](CN)C(=O)N[C@H]1CCNC(=O)[C@H]([C@@H](C)OCS(=O)(=O)O)NC(=O)[C@H](CCN)NC(=O)[C@H](CCN)NC(=O)[C@H]([C@@H](C)O)NC(=O)[C@@H](Cc2ccccc2)NC(=O)[C@H](CCN)NC1=O)[C@@H](C)O [Compound 115, 6-methylheptanoyl-Dab-Thr-Dap-ring(4-10)[Dab-Dab-D-Phe-Thr-Dab-Dab-Thr(CH2SO3H)]] ({Heptanoyl(6-Me)}-[Dab]T[Dap][Dab][Dab][dF]T[Dab][Dab]T(Sulfomethyl); lactam 4-C) | 0.06 mg/L (≈ 0.0477 µM) | 0.06 mg/L (≈ 0.0477 µM) | 0.03 mg/L (≈ 0.0239 µM) | 0.03 mg/L (≈ 0.0239 µM) | 0.125 mg/L (≈ 0.0994 µM) | 0.125 mg/L (≈ 0.0994 µM) | 0.25 mg/L (≈ 0.199 µM) | 0.25 mg/L (≈ 0.199 µM) | > 500 mg/L
CC(C)CCCCC(=O)N[C@@H](CCN)C(=O)N[C@H](C(=O)N[C@@H](CN)C(=O)N[C@H]1CCNC(=O)[C@H]([C@@H](C)O)NC(=O)[C@H](CCN)NC(=O)[C@H](CCN)NC(=O)[C@H]([C@@H](C)O)NC(=O)[C@@H](Cc2ccc(CS(=O)(=O)O)cc2)NC(=O)[C@H](CCN)NC1=O)[C@@H](C)O [Compound 116, 6-methylheptanoyl-Dab-Thr-Dap-ring(4-10)[Dab-Dab-D-Phe(4-CH2SO3H)-Thr-Dab-Dab-Thr]] ({Heptanoyl(6-Me)}-[Dab]T[Dap][Dab][Dab][X3]T[Dab][Dab]T; lactam 4-C) | 0.06 mg/L (≈ 0.0477 µM) | 0.06 mg/L (≈ 0.0477 µM) | 0.03 mg/L (≈ 0.0239 µM) | 0.03 mg/L (≈ 0.0239 µM) | 0.125 mg/L (≈ 0.0994 µM) | 0.125 mg/L (≈ 0.0994 µM) | 0.25 mg/L (≈ 0.199 µM) | 0.25 mg/L (≈ 0.199 µM) | > 500 mg/L
CC(C)CCCCC(=O)N[C@@H](CCNCS(=O)(=O)O)C(=O)N[C@H](C(=O)N[C@@H](CN)C(=O)N[C@H]1CCNC(=O)[C@H]([C@@H](C)O)NC(=O)[C@H](CCN)NC(=O)[C@H](CCN)NC(=O)[C@H]([C@@H](C)O)NC(=O)[C@@H](Cc2ccccc2)NC(=O)[C@H](CCN)NC1=O)[C@@H](C)O [Compound 117, 6-methylheptanoyl-Dab(CH2SO3H)-Thr-Dap-ring(4-10)[Dab-Dab-D-Phe-Thr-Dab-Dab-Thr]] ({Heptanoyl(6-Me)}-[Dab(CH2SO3H)]T[Dap][Dab][Dab][dF]T[Dab][Dab]T; lactam 4-C) | 0.25 mg/L (≈ 0.199 µM) | 0.06 mg/L (≈ 0.0477 µM) | 0.06 mg/L (≈ 0.0477 µM) | 0.06 mg/L (≈ 0.0477 µM) | 0.125 mg/L (≈ 0.0994 µM) | 0.125 mg/L (≈ 0.0994 µM) | 0.25 mg/L (≈ 0.199 µM) | 0.5 mg/L (≈ 0.398 µM) | > 500 mg/L
CC(C)CCCCC(=O)N[C@@H](CCN)C(=O)N[C@H](C(=O)N[C@@H](CN)C(=O)N[C@H]1CCNC(=O)[C@H]([C@@H](C)O)NC(=O)[C@H](CCN)NC(=O)[C@H](CCN)NC(=O)[C@H]([C@@H](C)O)NC(=O)[C@@H](Cc2ccccc2)NC(=O)[C@H](CCNCS(=O)(=O)O)NC1=O)[C@@H](C)O [Compound 118, 6-methylheptanoyl-Dab-Thr-Dap-ring(4-10)[Dab-Dab(CH2SO3H)-D-Phe-Thr-Dab-Dab-Thr]] ({Heptanoyl(6-Me)}-[Dab]T[Dap][Dab][Dab(CH2SO3H)][dF]T[Dab][Dab]T; lactam 4-C) | 0.25 mg/L (≈ 0.199 µM) | 0.06 mg/L (≈ 0.0477 µM) | 0.06 mg/L (≈ 0.0477 µM) | 0.06 mg/L (≈ 0.0477 µM) | 0.125 mg/L (≈ 0.0994 µM) | 0.125 mg/L (≈ 0.0994 µM) | 0.25 mg/L (≈ 0.199 µM) | 0.5 mg/L (≈ 0.398 µM) | > 500 mg/L
CC(C)CCCCC(=O)N[C@@H](CCN)C(=O)N[C@H](C(=O)N[C@@H](CN)C(=O)N[C@H]1CCNC(=O)[C@H]([C@@H](C)O)NC(=O)[C@H](CCN)NC(=O)[C@H](CCNCS(=O)(=O)O)NC(=O)[C@H]([C@@H](C)O)NC(=O)[C@@H](Cc2ccccc2)NC(=O)[C@H](CCN)NC1=O)[C@@H](C)O [Compound 119, 6-methylheptanoyl-Dab-Thr-Dap-ring(4-10)[Dab-Dab-D-Phe-Thr-Dab(CH2SO3H)-Dab-Thr]] ({Heptanoyl(6-Me)}-[Dab]T[Dap][Dab][Dab][dF]T[Dab(CH2SO3H)][Dab]T; lactam 4-C) | 0.25 mg/L (≈ 0.199 µM) | 0.06 mg/L (≈ 0.0477 µM) | 0.06 mg/L (≈ 0.0477 µM) | 0.06 mg/L (≈ 0.0477 µM) | 0.125 mg/L (≈ 0.0994 µM) | 0.125 mg/L (≈ 0.0994 µM) | 0.25 mg/L (≈ 0.199 µM) | 0.5 mg/L (≈ 0.398 µM) | > 500 mg/L
CC(C)CCCCC(=O)N[C@@H](CCN)C(=O)N[C@H](C(=O)N[C@@H](CN)C(=O)N[C@H]1CCNC(=O)[C@H]([C@@H](C)O)NC(=O)[C@H](CCNCS(=O)(=O)O)NC(=O)[C@H](CCN)NC(=O)[C@H]([C@@H](C)O)NC(=O)[C@@H](Cc2ccccc2)NC(=O)[C@H](CCN)NC1=O)[C@@H](C)O [Compound 120, 6-methylheptanoyl-Dab-Thr-Dap-ring(4-10)[Dab-Dab-D-Phe-Thr-Dab-Dab(CH2SO3H)-Thr]] ({Heptanoyl(6-Me)}-[Dab]T[Dap][Dab][Dab][dF]T[Dab][Dab(CH2SO3H)]T; lactam 4-C) | 0.25 mg/L (≈ 0.199 µM) | 0.06 mg/L (≈ 0.0477 µM) | 0.06 mg/L (≈ 0.0477 µM) | 0.06 mg/L (≈ 0.0477 µM) | 0.125 mg/L (≈ 0.0994 µM) | 0.125 mg/L (≈ 0.0994 µM) | 0.25 mg/L (≈ 0.199 µM) | 0.5 mg/L (≈ 0.398 µM) | > 500 mg/L

— patent EP4725957A1, “GROUP OF CYCLIC ALKALINE LIPOPEPTIDE COMPOUNDS, AND PREPARATION METHOD THEREFOR AND USE THEREOF” (Institute of Medicinal Biotechnology, Chinese Academy of …, priority 2023, dated 2024)
